Assay results from US5686255A, “Compositions and methods for diagnosing schizophrenia” (priority 1995, dated 1997).
“Also recorded” adds a separate entry of the source.

Columns and labels:
[1] = test system: Chinese hamster ovary cells which express the cloned dopamine D4 receptor; assay: Spontaneous G protein binding of [35S]GTPγS in membranes of CHO cells expressing the D4 receptor, after cycloleucine pretreatment; type: cell-based; settings: cells treated with 0.1 mM and 1 mM cycloleucine prior to membrane preparation; versus untreated control membranes; FIG. 5A
Description: The effect of cycloleucine, a known MAT inhibitor, on the binding of [^35 S]GTPγS was tested by treating Chinese hamster ovary cells expressing the D4 receptor with 0.1 mM and 1 mM cycloleucine prior to membrane preparation (FIG. 5A).
Chinese hamster ovary (CHO) cells stably expressing a cloned dopamine D4 receptor were grown as monolayers at 37° (95% O2 /5%CO2) in alpha minimum essential medium supplemented with 2.5% fetal calf serum, 2.5% horse serum, 100 units/ml penicillin, 100 μg/ml streptomycin, 0.25 μg/ml fungizone and 400 μg/ml G418.
Cells were washed twice with phosphate-buffered saline (137 mM NaCl, 2.6 mM KCl, 10 mM Na2 HPO4, 1.8 mM KH2 PO4), harvested with a rubber policeman, and pelleted at 4° at 200× g. The pellet was resuspended in 5 ml/dish of lysis buffer (5 mM Tris-HCL, pH 7.5, 5 mM EDTA, 5 mM EGTA, 0.1 mM phenylmethylsulfonyl fluoride) at 4° and was homogenized with a Dounce homogenizer. […]
[^35 S]GTPγS binding was measured with a modification of the assay used by Hilf and Jakobs (Eur J Pharmacol 172: 155-163 (1989)). […] The filters were washed four times (with 4 ml of 50 mM Tris.cndot.HCl, pH 7.5, containing 5 mM MgCl2 and 100 mM NaCl) and then counted in scintillation cocktail. Nonspecific binding was determined in the presence of 10 μM GTPγS and subtracted from total bound radioactivity.

[2] = test system: Chinese hamster ovary cells without the D4 receptor; assay: Spontaneous [35S]GTPγS binding in CHO cells without the D4 receptor; type: cell-based; settings: FIG. 5B
Description: FIGS. 5A and 5B illustrate graphic representations of the effect of cycloleucine on spontaneous G protein binding of [^35 S]GTPγS.

NC1(C(=O)O)CCCC1 [cycloleucine]
binding of [35S]GTPγS to the membranes (spontaneous G protein activation) [1]: inhibit spontaneous G protein binding of [^35 S]GTPγS; also recorded: progressively reduced by 0.1 mM and 1 mM cycloleucine pretreatment to levels significantly lower than the untreated control membranes
effect on spontaneous [35S]GTPγS binding [2]: inability of cycloleucine to affect spontaneous [^35 S]GTPγS binding
